In US9096624B2 (OSI Pharmaceuticals, LLC, priority 2009, dated 2015):

Columns and labels:
[1] = target: T1, FAK (Homo sapiens, UniProt Q05397); experiment: Cell-based capture ELISA for inhibition of FAK autophosphorylation [pY397] in MiaPaCa2 cells; settings: MIA-PaCa2 cells, + 50% mouse plasma (Table 3); read-out: Mean FAK Cell Mechanistic IC50 + 50% mP MIA-PaCa2
Experimental: Cell-Based Assays for Inhibition of FAK Autophosphorylation: MiaPaCa2 and U87MG
ELISA kit from Invitrogen (KHO0441).
Reagents Provided in Biosource FAK [pY397]
The cells were then suspended in cell assay medium.

[2] = target: T1, FAK; experiment: biochemical

T1 sequence (Q05397 whole entry): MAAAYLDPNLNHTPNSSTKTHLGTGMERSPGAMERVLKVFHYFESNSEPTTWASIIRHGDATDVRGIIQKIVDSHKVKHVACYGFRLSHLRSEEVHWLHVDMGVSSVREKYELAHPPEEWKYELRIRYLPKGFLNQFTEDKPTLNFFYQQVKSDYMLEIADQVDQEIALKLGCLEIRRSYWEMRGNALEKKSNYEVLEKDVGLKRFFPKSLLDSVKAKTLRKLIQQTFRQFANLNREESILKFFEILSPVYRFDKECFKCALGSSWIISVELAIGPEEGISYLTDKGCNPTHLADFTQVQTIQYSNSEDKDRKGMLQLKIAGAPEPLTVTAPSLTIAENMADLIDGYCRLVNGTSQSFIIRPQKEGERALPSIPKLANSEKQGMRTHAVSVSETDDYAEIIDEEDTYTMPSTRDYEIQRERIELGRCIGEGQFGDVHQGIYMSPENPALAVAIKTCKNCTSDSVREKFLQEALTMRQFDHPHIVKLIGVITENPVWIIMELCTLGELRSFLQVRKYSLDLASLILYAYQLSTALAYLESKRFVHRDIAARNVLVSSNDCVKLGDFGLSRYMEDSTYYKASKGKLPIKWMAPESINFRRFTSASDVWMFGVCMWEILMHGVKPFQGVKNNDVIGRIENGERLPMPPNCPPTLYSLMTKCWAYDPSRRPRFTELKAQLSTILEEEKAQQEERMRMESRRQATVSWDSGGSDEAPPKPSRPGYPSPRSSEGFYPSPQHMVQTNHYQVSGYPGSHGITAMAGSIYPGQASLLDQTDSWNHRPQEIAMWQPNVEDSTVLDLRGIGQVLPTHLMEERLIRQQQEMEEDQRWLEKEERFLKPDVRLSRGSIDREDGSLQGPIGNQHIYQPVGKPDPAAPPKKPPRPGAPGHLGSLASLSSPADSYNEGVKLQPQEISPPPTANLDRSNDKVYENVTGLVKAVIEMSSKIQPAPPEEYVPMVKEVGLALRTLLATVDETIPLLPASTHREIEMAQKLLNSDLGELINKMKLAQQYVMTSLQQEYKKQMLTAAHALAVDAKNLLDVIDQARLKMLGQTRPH

| Structure (SMILES) | IC50 [1] | IC50 [2] |
| --- | --- | --- |
| CCOP(=O)(O)Cc1ccc(Nc2ncc(C(F)(F)F)c(Nc3ccc(-c4cnn(CCCO)c4)c4c3C(=O)N(C)C4)n2)cc1 [Example 182, Sodium ethyl (4-{[4-({7-[1-(3-hydroxypropyl)-1H-pyrazol-4-yl]-2-methyl-3-oxo-2,3-dihydro-1H-isoindol-4-yl}amino)-5-(trifluoromethyl)pyrimidin-2-yl]amino}benzyl)phosphonate] | 1000 to 10000 nM | < 1000 nM |
| CCOP(=O)(Cc1ccc(Nc2ncc(C(F)(F)F)c(Nc3ccc([C@H]4CC[C@](C)(O)CC4)c4c3C(=O)N(C)C4)n2)cc1)OCC [Example 183, Diethyl (4-{[4-{[7-(trans-4-hydroxy-4-methylcyclohexyl)-2-methyl-3-oxo-2,3-dihydro-1H-isoindol-4-yl]amino}-5-(trifluoromethyl)pyrimidin-2-yl]amino}benzyl)phosphonate] | < 1000 nM | < 1000 nM |
| CCOP(=O)(Cc1ccc(Nc2ncc(C(F)(F)F)c(Nc3ccc([C@H]4CC[C@@](C)(O)CC4)c4c3C(=O)N(C)C4)n2)cc1)OCC [Example 184, Diethyl (4-{[4-{[7-(cis-4-hydroxy-4-methylcyclohexyl)-2-methyl-3-oxo-2,3-dihydro-1H-isoindol-4-yl]amino}-5-(trifluoromethyl)pyrimidin-2-yl]amino}benzyl) phosphonate] | < 1000 nM | < 1000 nM |
| CNC(=O)c1ccccc1Nc1nc(Nc2ccc(CP(=O)(OCCOC)OCCOC)cc2)ncc1C(F)(F)F [Example 185, Bis(2-methoxyethyl) (4-{[4-{[2-(methylcarbamoyl)phenyl]amino}-5-(trifluoromethyl)pyrimidin-2-yl]amino}benzyl)phosphonate] | < 1000 nM | < 1000 nM |
| CCOP(=O)(OCC)C(F)(F)c1ccc(Nc2ncc(C(F)(F)F)c(Nc3ccccc3C(=O)NC)n2)cc1 [Example 188, Diethyl [difluoro(4-{[4-{[2-(methylcarbamoyl)phenyl]amino}-5-(trifluoromethyl)-pyrimidin-2-yl]amino}phenyl)methyl]phosphonate] | < 1000 nM | < 1000 nM |
| COCCOP(=O)(Cc1ccc(Nc2ncc(C(F)(F)F)c(Nc3ccc([C@H]4CC[C@H](O)CC4)c4c3C(=O)N(C)C4)n2)cc1)OCCOC [Example 189, Bis(2-methoxyethyl) (4-{[4-{[7-(trans-4-hydroxycyclohexyl)-2-methyl-3-oxo-2,3-dihydro-1H-isoindol-4-yl]amino}-5-(trifluoromethyl)pyrimidin-2-yl]amino}benzyl)phosphonate] | < 1000 nM | < 1000 nM |
| CCOP(=O)(Cc1ccc(Nc2ncc(C(F)(F)F)c(Nc3ccccc3C(N)=O)n2)c(OC)c1)OCC [Example 190, Diethyl [4-({4-[(2-carbamoylphenyl)amino]-5-(trifluoromethyl)pyrimidin-2-yl}amino)-3-methoxybenzyl]phosphonate] | < 1000 nM | < 1000 nM |
| CCOP(C)(=O)Cc1ccc(Nc2ncc(C(F)(F)F)c(Nc3ccc([C@H]4CC[C@H](O)CC4)c4c3C(=O)N(C)C4)n2)c(OC)c1 (stereo partly drawn) [Example 191, Ethyl (4-{[4-{[7-(trans-4-hydroxycyclohexyl)-2-methyl-3-oxo-2,3-dihydro-1H-isoindol-4-yl]amino}-5-(trifluoromethyl)pyrimidin-2-yl]amino}-3-methoxybenzyl) methylphosphinate] | < 1000 nM | < 1000 nM |
| CCOP(=O)(Cc1ccc(Nc2ncc(C(F)(F)F)c(Nc3ccc([C@H]4CC[C@@H](O)CC4)cc3C(=O)N(C)C)n2)c(OC)c1)OCC [Example 194, Diethyl (4-{[4-{[2-(dimethylcarbamoyl)-4-(cis-4-hydroxycyclohexyl)phenyl]amino}-5-(trifluoromethyl)pyrimidin-2-yl]amino}-3-methoxybenzyl)phosphonate] | 1000 to 10000 nM | < 1000 nM |
| CCOP(=O)(Cc1ccc(Nc2ncc(C(F)(F)F)c(Nc3ccc([C@H]4CC[C@](C)(O)CC4)c4c3C(=O)N(C)C4)n2)c(OC)c1)OCC [Example 196, Diethyl (4-{[4-{[7-(trans-4-hydroxy-4-methylcyclohexyl)-2-methyl-3-oxo-2,3-dihydro-1H-isoindol-4-yl]amino}-5-(trifluoromethyl)pyrimidin-2-yl]amino}-3-methoxybenzyl)phosphonate] | < 1000 nM | < 1000 nM |
| CCOP(=O)(Cc1ccc(Nc2ncc(C(F)(F)F)c(Nc3ccc([C@H]4CC[C@@](C)(O)CC4)c4c3C(=O)N(C)C4)n2)c(OC)c1)OCC [Example 197, Diethyl (4-{[4-{[7-(cis-4-hydroxy-4-methylcyclohexyl)-2-methyl-3-oxo-2,3-dihydro-1H-isoindol-4-yl]amino}-5-(trifluoromethyl)pyrimidin-2-yl]amino}-3-methoxybenzyl)phosphonate] | < 1000 nM | < 1000 nM |
| CCCP(=O)(CCC)c1ccc(Nc2ncc(C(F)(F)F)c(Nc3ccc([C@H]4CC[C@H](O)CC4)c4c3C(=O)N(C)C4)n2)cc1 [Example 198, 7-{[2-{[4-(Dipropylphosphoryl)phenyl]amino}-5-(trifluoromethyl)pyrimidin-4-yl]amino}-4-(trans-4-hydroxycyclohexyl)-2-methyl-2,3-dihydro-1H-isoindol-1-one] | < 1000 nM | < 1000 nM |
| CCOP(=O)(Cc1ccc(Nc2ncc(C(F)(F)F)c(Nc3ccc(N4CCN(C(C)=O)CC4)c4c3C(=O)N(C)C4)n2)cc1)OCC [Example 199, Diethyl (4-{[4-{[7-(4-acetylpiperazin-1-yl)-2-methyl-3-oxo-2,3-dihydro-1H-isoindol-4-yl]amino}-5-(trifluoromethyl)pyrimidin-2-yl]amino}benzyl)phosphonate] | < 1000 nM | < 1000 nM |
| CCOP(=O)(Cc1ccc(Nc2ncc(C(F)(F)F)c(Nc3ccc(N4CCN(C)CC4)c4c3C(=O)N(C)C4)n2)cc1)OCC [Example 201, Diethyl (4-{[4-{[2-methyl-7-(4-methylpiperazin-1-yl)-3-oxo-2,3-dihydro-1H-isoindol-4-yl]amino}-5-(trifluoromethyl)pyrimidin-2-yl]amino}benzyl)phosphonate] | < 1000 nM | < 1000 nM |
| CCOP(=O)(Cc1ccc(Nc2ncc(C(F)(F)F)c(Nc3cccc4[nH]cc(C)c(=O)c34)n2)cc1)OCC [Example 203, Diethyl [4-({4-[(3-methyl-4-oxo-1,4-dihydroquinolin-5-yl)amino]-5-(trifluoromethyl)pyrimidin-2-yl}amino)benzyl]phosphonate] | < 1000 nM | < 1000 nM |
| CCOc1ccc(Nc2nc(Nc3ccc(CP(=O)(OCC)OCC)cc3)ncc2C(F)(F)F)c2c1CN(C)C2=O [Example 206, Diethyl [4-({4-[(7-ethoxy-2-methyl-3-oxo-2,3-dihydro-1H-isoindol-4-yl)amino]-5-(trifluoromethyl)pyrimidin-2-yl}amino)benzyl]phosphonate] | < 1000 nM | < 1000 nM |
| CCOP(=O)(Cc1ccc(Nc2ncc(C(F)(F)F)c(Nc3ccc(OC(C)C)c4c3C(=O)N(C)C4)n2)cc1)OCC [Example 207, Diethyl (4-{[4-{[2-methyl-3-oxo-7-(propan-2-yloxy)-2,3-dihydro-1H-isoindol-4-yl]amino}-5-(trifluoromethyl)pyrimidin-2-yl]amino}benzyl)phosphonate] | < 1000 nM | < 1000 nM |
| CCOP(=O)(Cc1ccc(Nc2ncc(C(F)(F)F)c(Nc3ccc(N4CCOCC4)c4c3C(=O)N(C)C4)n2)cc1)OCC [Example 208, Diethyl (4-{[4-{[2-methyl-7-(morpholin-4-yl)-3-oxo-2,3-dihydro-1H-isoindol-4-yl]amino}-5-(trifluoromethyl)pyrimidin-2-yl]amino}benzyl)phosphonate] | < 1000 nM | < 1000 nM |
| CCOP(=O)(Cc1ccc(Nc2ncc(C(F)(F)F)c(Nc3ccc(OC)c4c3C(=O)N(C)C4)n2)c(OC)c1)OCC [Example 209, Diethyl [3-methoxy-4-({4-[(7-methoxy-2-methyl-3-oxo-2,3-dihydro-1H-isoindol-4-yl)amino]-5-(trifluoromethyl)pyrimidin-2-yl}amino)benzyl]phosphonate] | < 1000 nM | < 1000 nM |
| COCCOP(=O)(Cc1ccc(Nc2ncc(C(F)(F)F)c(Nc3ccc([C@H]4CC[C@H](O)CC4)c4c3C(=O)N(C)C4)n2)c(OC)c1)OCCOC [Example 217, Bis(2-methoxyethyl) (4-{[4-{[7-(trans-4-hydroxycyclohexyl)-2-methyl-3-oxo-2,3-dihydro-1H-isoindol-4-yl]amino}-5-(trifluoromethyl)pyrimidin-2-yl]amino}-3-methoxybenzyl)phosphonate] | < 1000 nM | < 1000 nM |
| COCCOP(=O)(Cc1ccc(Nc2ncc(C(F)(F)F)c(Nc3cccc4c3C(=O)N(C)C4)n2)c(OC)c1)OCCOC [Example 219, Bis(2-methoxyethyl) [3-methoxy-4-({4-[(2-methyl-3-oxo-2,3-dihydro-1H-isoindol-4-yl)amino]-5-(trifluoromethyl)pyrimidin-2-yl}amino)benzyl]phosphonate] | < 1000 nM | < 1000 nM |
| CNC(=O)c1ccccc1Nc1nc(Nc2ccc(CP(=O)(OCCOC)OCCOC)cc2OC)ncc1C(F)(F)F [Example 221, Bis(2-methoxyethyl) (3-methoxy-4-{[4-{[2-(methylcarbamoyl)phenyl]amino}-5-(trifluoromethyl)pyrimidin-2-yl]amino}benzyl)phosphonate] | < 1000 nM | < 1000 nM |
| CCOP(=O)(Cc1ccc(Nc2ncc(C(F)(F)F)c(Nc3ccc(N4CCN(C(C)=O)CC4)c4c3C(=O)N(C)C4)n2)c(OC)c1)OCC [Example 223, Diethyl (4-{[4-{[7-(4-acetylpiperazin-1-yl)-2-methyl-3-oxo-2,3-dihydro-1H-isoindol-4-yl]amino}-5-(trifluoromethyl)pyrimidin-2-yl]amino}-3-methoxybenzyl)phosphonate] | < 1000 nM | < 1000 nM |
